The target in experiment [1] is Platelet-derived growth factor receptor alpha (Homo sapiens, UniProt P16234). As to the kind of experiment: Selectivity interaction (KinomeScan (DiscoverX)) EUB0000695a PDGFRA. To be noted: at 100 nM.
Experiment [2] concerns the target T1, cGMP-dependent protein kinase 1 (Homo sapiens) (UniProt Q13976).
T1 sequence (whole entry): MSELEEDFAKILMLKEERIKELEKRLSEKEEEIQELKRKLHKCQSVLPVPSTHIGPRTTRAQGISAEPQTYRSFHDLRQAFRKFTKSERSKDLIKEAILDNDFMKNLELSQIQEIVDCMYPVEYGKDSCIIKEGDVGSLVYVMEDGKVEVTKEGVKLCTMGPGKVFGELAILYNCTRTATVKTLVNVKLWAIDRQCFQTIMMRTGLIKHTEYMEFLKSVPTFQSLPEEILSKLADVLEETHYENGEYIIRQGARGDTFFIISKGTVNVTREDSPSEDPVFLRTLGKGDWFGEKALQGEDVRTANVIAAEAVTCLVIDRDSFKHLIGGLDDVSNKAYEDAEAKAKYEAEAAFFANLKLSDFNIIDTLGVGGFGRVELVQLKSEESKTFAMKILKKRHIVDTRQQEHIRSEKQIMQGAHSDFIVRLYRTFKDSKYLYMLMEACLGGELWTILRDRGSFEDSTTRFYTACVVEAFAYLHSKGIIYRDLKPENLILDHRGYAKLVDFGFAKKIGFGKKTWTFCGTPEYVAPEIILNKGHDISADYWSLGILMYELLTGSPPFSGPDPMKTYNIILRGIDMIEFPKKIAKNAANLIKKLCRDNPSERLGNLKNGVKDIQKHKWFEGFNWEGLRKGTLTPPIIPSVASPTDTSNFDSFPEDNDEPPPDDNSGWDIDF
Briefly: Selectivity interaction (KinomeScan (DiscoverX)) EUB0000695a PRKG1. As to conditions: at 100 nM.

In experiment [3] the target is Atypical kinase COQ8A, mitochondrial (Homo sapiens, UniProt Q8NI60). As to conditions: at 10 µM.
Experiment [4] has as its target Fibroblast growth factor receptor 3 (Homo sapiens, UniProt P22607). Briefly: Selectivity interaction (Kinase panel (33PanQinase(R) Activity Assay)) EUB0000877a FGFR3.
In experiment [5] the target is Bromodomain-containing protein 3 (Homo sapiens) (UniProt Q15059). Briefly: Selectivity interaction (Bromodomain panel (DSF asssay)) EUB0000270b BRD3.
The target in experiment [6] is T2, Serine/threonine-protein kinase 17B (Homo sapiens) (UniProt O94768).
T2 sequence (whole entry): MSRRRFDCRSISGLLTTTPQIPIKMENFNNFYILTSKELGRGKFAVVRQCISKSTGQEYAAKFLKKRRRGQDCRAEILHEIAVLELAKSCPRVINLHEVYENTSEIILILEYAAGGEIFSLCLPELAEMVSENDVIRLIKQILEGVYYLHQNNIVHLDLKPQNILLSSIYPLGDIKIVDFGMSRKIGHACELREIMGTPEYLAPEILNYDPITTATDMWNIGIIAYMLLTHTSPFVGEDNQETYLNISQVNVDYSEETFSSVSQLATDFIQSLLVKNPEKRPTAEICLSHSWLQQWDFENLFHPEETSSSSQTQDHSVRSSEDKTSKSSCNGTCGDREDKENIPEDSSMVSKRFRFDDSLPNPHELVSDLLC
As to the kind of experiment: Selectivity interaction (KinomeScan (DiscoverX)) EUB0000618a STK17B. To be noted: at 10 µM.

For experiment [7], the target named is T3, Mitogen-activated protein kinase kinase kinase 19 (Homo sapiens) (UniProt Q56UN5).
T3 sequence (whole entry): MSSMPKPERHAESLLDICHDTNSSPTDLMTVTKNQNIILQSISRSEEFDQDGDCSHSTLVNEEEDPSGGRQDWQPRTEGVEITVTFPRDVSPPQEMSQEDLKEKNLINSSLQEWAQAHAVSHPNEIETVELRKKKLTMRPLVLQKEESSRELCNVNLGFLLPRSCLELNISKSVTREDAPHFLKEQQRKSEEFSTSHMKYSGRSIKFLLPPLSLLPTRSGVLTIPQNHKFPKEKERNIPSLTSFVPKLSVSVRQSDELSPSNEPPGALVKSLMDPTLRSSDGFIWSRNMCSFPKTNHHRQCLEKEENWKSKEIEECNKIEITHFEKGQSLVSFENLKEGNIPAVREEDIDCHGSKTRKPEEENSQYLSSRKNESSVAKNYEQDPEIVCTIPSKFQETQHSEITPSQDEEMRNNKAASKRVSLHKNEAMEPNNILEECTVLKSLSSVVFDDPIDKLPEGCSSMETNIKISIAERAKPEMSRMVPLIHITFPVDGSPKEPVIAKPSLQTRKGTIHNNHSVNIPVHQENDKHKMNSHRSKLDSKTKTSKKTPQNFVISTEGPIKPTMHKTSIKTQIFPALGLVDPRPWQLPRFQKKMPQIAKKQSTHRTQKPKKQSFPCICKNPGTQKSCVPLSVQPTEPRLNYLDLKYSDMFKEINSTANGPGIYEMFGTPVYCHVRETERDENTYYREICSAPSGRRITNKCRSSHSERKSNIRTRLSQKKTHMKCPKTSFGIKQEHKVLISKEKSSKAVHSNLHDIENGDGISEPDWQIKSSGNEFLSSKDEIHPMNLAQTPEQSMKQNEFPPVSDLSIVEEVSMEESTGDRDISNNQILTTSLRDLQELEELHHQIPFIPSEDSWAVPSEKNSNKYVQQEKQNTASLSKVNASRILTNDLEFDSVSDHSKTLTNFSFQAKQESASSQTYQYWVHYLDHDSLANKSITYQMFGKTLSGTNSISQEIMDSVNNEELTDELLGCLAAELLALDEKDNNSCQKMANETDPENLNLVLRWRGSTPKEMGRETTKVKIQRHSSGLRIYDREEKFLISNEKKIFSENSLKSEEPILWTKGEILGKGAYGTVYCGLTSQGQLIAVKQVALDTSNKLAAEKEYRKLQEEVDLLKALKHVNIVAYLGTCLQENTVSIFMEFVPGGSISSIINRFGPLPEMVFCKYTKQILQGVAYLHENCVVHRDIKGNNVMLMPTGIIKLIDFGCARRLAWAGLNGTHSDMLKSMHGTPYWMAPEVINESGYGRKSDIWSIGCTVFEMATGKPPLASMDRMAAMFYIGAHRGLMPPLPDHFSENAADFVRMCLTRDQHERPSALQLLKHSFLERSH
Briefly: Selectivity interaction (KinomeScan (DiscoverX)) EUB0000092b MAP3K19. To be noted: at 10 µM.

For experiment [8], the target named is Serine/threonine-protein kinase PAK 1 (Homo sapiens) (UniProt Q13153). Briefly: Selectivity interaction (KinomeScan (DiscoverX)) EUB0000092b PAK1. To be noted: at 10 µM.

SMILES strings stand for the structures.

Sequence of Fibroblast growth factor receptor 3 (P22607 whole entry): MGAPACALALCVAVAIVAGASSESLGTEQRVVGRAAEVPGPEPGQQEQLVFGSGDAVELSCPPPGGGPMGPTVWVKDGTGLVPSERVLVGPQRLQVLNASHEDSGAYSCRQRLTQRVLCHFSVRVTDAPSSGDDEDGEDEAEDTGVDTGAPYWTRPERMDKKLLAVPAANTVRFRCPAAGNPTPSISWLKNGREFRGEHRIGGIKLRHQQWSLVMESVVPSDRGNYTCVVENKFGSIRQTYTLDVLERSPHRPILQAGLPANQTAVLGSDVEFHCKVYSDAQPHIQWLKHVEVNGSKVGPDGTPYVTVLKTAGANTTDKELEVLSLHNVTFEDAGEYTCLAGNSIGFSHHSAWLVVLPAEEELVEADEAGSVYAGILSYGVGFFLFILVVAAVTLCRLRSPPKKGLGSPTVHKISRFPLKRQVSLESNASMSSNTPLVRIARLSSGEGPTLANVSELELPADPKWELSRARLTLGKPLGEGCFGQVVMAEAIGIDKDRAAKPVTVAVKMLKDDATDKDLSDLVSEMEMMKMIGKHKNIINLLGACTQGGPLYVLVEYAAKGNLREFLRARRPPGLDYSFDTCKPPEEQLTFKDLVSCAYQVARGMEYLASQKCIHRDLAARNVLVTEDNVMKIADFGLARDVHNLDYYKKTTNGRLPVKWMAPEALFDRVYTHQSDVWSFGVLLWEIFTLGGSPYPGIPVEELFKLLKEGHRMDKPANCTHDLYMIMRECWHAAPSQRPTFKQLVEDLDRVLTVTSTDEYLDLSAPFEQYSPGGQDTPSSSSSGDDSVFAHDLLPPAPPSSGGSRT
Sequence of Atypical kinase COQ8A, mitochondrial (Q8NI60 163-647 limits assumed): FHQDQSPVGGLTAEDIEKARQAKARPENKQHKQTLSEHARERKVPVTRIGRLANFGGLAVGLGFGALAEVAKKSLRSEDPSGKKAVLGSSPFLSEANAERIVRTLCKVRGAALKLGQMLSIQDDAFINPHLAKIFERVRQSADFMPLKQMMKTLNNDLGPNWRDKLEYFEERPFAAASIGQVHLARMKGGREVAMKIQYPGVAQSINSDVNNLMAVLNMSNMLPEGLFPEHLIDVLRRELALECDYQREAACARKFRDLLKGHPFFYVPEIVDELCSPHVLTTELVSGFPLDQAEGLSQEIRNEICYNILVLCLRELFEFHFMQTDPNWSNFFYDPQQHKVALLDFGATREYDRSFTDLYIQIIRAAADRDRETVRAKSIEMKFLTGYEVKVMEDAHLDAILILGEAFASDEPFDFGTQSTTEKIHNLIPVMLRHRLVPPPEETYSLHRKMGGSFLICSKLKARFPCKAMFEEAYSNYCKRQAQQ
Sequence of Platelet-derived growth factor receptor alpha (P16234 whole entry): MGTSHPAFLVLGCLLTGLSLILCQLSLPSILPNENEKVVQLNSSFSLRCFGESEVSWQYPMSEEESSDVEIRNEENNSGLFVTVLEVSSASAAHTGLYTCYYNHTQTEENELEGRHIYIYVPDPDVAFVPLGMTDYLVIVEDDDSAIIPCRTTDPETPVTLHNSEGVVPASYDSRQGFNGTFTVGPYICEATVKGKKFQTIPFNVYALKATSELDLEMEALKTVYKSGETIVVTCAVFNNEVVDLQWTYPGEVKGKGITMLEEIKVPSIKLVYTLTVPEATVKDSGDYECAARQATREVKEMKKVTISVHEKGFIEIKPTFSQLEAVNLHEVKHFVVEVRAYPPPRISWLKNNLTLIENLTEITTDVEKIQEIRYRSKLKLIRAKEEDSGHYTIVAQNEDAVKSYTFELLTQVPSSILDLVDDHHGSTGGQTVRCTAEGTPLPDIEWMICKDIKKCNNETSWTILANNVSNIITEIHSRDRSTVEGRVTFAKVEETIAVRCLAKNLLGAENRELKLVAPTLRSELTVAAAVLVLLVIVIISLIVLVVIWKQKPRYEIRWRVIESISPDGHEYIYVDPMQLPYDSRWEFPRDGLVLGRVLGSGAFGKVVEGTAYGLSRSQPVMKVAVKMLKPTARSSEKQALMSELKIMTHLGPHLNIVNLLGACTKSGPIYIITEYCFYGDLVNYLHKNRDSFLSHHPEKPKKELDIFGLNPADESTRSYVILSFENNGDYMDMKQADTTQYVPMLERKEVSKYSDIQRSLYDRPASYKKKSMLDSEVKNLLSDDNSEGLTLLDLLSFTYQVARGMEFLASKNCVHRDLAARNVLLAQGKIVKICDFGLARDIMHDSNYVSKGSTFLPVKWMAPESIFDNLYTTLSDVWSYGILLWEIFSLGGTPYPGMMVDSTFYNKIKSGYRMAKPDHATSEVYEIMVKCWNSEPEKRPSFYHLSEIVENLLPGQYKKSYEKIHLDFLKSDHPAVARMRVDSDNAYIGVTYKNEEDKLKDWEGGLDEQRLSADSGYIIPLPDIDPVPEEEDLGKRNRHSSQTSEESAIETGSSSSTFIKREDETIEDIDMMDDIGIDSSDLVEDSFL
Sequence of Serine/threonine-protein kinase PAK 1 (Homo sapiens) (Q13153 whole entry): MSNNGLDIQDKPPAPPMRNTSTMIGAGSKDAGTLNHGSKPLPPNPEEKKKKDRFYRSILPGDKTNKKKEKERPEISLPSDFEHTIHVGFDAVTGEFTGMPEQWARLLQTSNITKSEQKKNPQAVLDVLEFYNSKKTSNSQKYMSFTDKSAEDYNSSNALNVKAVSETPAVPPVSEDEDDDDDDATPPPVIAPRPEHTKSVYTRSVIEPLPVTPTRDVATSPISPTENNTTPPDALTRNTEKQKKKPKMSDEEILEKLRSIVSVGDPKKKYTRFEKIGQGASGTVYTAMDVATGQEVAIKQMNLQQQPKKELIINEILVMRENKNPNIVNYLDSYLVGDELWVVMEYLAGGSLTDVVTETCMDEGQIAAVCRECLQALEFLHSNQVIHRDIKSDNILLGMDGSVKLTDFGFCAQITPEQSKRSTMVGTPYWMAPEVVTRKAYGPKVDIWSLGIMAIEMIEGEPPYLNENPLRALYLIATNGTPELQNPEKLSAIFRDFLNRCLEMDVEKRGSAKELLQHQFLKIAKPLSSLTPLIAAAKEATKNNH
Sequence of Bromodomain-containing protein 3 (Homo sapiens) (Q15059 2-726 limits assumed): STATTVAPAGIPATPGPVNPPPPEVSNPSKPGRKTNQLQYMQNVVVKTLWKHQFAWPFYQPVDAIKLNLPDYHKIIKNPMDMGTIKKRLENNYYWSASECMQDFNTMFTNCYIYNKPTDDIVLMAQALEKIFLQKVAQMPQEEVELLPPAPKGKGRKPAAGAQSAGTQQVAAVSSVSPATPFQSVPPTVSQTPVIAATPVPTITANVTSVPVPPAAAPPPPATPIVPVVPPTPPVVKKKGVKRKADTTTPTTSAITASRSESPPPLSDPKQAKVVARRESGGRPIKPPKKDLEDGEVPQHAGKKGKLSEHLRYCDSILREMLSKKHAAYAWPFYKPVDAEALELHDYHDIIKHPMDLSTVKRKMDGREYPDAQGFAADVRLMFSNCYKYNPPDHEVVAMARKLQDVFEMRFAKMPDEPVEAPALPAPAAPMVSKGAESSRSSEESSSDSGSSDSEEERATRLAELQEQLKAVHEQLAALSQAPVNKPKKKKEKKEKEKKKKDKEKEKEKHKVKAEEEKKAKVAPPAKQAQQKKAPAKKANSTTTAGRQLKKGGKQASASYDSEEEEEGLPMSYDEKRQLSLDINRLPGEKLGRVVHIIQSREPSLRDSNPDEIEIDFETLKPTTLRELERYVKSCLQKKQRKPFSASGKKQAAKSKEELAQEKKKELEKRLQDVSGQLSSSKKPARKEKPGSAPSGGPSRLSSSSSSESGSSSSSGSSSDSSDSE

Regarding `Cc1cc(F)c(C(=O)Nc2cccc(-c3nncn3C(C)C)n2)cc1-n1cnc(C2CC2)c1`, the % of control in experiment [1] and in experiment [2] was 100% throughout.

In experiment [3], `Cc1cc([C@@H](C)Nc2ccccc2C(=O)O)c2nc(N3CCOCC3)cc(=O)n2c1` [AZD-6482] yielded a % of control of 86%.

In turn, `CCC(=O)N1CC[C@H](Nc2ncnc3c2CN(c2cnc(OC)c(C(F)(F)F)c2)CC3)C1` [LENIOLISIB] had an IC50 in experiment [4] of over 10 µM.

The molecule `Cc1cc(CN)cc(C)c1-c1ncn(C)c1-c1cncn1C` showed a dTM in experiment [5] of -3.97 K.

On to `O[C@H]1CC[C@H](Nc2ncc3nc(Nc4c(F)cc(F)cc4F)n([C@H]4CCOC4)c3n2)CC1`, for which the % of control in experiment [6] is 70%.

For the molecule `CCC(=O)N1CCN(c2ccc(-n3c(=O)ccc4cnc5ccc(-c6cnc7ccccc7c6)cc5c43)cc2C(F)(F)F)CC1`, the % of control worked out at 38% in experiment [7] and 73% in experiment [8].

As a reminder, the IC50 is the concentration that inhibits the measured activity by half. High values mean weaker potency, low ones greater potency.

Values taken from ChEMBL document CHEMBL5465560, “Selectivity Literature for EUbOPEN Chemogenomic Library” (2024).
